Columns and labels:
SPAK = assay: Immunoblot of SPAK phosphorylation and expression in hippocampo-cortical slices; type: cell-based, rat; details: 10 μM WNK463, 2 h; vs DMSO
Procedure: (§1) For all experiments on hippocampal cultures, neurons were pre-incubated for 2 hours with either DMSO, PCPZ or CLP257 in a CO2 incubator set at 37° C. Drugs were added directly to the culture medium. For electrophysiology experiments, neurons were also recorded in presence of these drugs in the bath. For biochemistry experiments on rat hippocampo-cortical slices, slices were incubated with either DMSO (vehicle), CLP257, PCPZ, WNK463 or sodium orthovanadate for 2 hours in interface chambers set at 37° C. For human tissue experiments, slices were pre-incubated with either DMSO, CLP257 or PCPZ for 2 hours in interface chambers set at 37° C. and then also recorded in presence of these compounds.
(§2) 8-weeks old Sprague Dawley male rats were anesthetized by intraperitoneal ketamine/xylazine injection (120/10 mg/kg) and perfused transcardially with ice-cold (0-4° C.), oxygenated solution (O2/CO2 95/5%), containing (in mM): N-methyl-d-glucamine 93, KCl 2.5, NaH2PO4 1.2, NaHCO330, HEPES 20, D-glucose 20, ascorbic acid 5, sodium pyruvate 3, MgSO4 10 and CaCl2) 0.5 (300-310 mOsm, pH7.4). Brains were removed and transverse hippocampo-cortical slices (400 m thick) were prepared in the same solution using a vibratome (HM650V, Microm). Slices were then incubated for 2-hours with DMSO, the KCC2 enhancers (CLP257, PCPZ, WNK43) or sodium orthovanadate in an interface chamber containing artificial cerebrospinal fluid (ACSF) composed of (in mM): D-glucose 10, KCl 3.5, NaHOC3 26, NaH2PO4 1.25, NaCl 126, CaCl2) 1.6 and MgCl2 1.2 (290 mOsm), equilibrated with 5% CO2 in 95% 02. After the treatments, slices were washed with cold PBS, instantaneously frozen with liquid nitrogen and stored at −80° C.
(§3) Slices were mechanically lysed on ice, using a 2 mL Dounce, in a buffer containing (in mM): Tris/HCl, pH 7.5 50, EGTA 1, EDTA 1, sodium orthovanadate 1, sodium-B-glycerophosphate 10, sodium fluoride 50, sodium pyrophosphate 5, sucrose 270, benzamidine 1, phenylmethylsulfonyl fluoride 2, Triton […], (v/v) 2-mercaptoethanol 0.1% and protease inhibitors (Roche). After complete homogenization, samples were centrifuged (16,000×g at 4° C. for 10 min) and the supernatant was collected. Protein quantification was done using Pierce BCA Protein Assay kit (Thermo Scientific) with BSA as standard.
Samples were subjected to electrophoresis on polyacrylamide gradient gels (4-12% bis-tris gels) and transferred to nitrocellulose membranes. Membranes were rinsed with TBS-tween solution (TBST; Invitrogen) and blocked with 5% (w/v) skim milk. […] Fluorescence was detected and the relative intensities of immunoblot bands were determined using Odyssey infrared imaging system (LI-COR Bioscience). […]

OSR1 = assay: Immunoblot of OSR1 phosphorylation and expression in hippocampo-cortical slices; type: cell-based, rat; details: 10 μM WNK463, 2 h; vs DMSO
Procedure: as §1, §2, §3
Samples were subjected to electrophoresis on polyacrylamide gradient gels (4-12% bis-tris gels) and transferred to nitrocellulose membranes. Membranes were rinsed with TBS-tween solution (TBST; Invitrogen) and blocked with 5% (w/v) skim milk. The membranes were then immunoblotted in 5% (w/v) skim milk in TBST with a primary antibody against KCC2 (rabbit, 07-432; Millipore; 1:1000), or phosphotyrosine (mouse, clone 4G10, Millipore, 1:1000), and a mouse primary antibody against neuron-specific beta-III tubulin overnight at 4° C. (clone 2G10; T8578; Sigma-Aldrich; 1:1000). They were then washed three times with distillated water, three times with TBST-milk solution and incubated for one hour at RT with goat secondary antibodies anti-rabbit IRDye 800 (1:3000; LI-COR), goat anti-mouse IRDye 700 (1:3000; LI-COR) or donkey anti-sheep DyLight 800 (1:3000; Rockland). Membranes were then washed again with TBST three times and one time with TBS. Fluorescence was detected and the relative intensities of immunoblot bands were determined using Odyssey infrared imaging system (LI-COR Bioscience). […]

KCC2 = assay: Immunoprecipitation/immunoblot of KCC2 phosphorylation and expression in hippocampo-cortical slices; type: cell-based, rat
Procedure: as §1, §2, §3
The following phosphorylation site-specific antibodies: anti-KCC3A phospho Thr1048 (0.35 mg/ml, sheep, [S0961C] 1st bleed, Dundee), anti-KCC3A phospho Thr 991 (0.26 mg/ml, sheep, [S959C] 1st bleed, Dundee) were first incubated for 30 min at 4° C. with the corresponding non-phosphorylated peptide (10 mg/ml, Dundee).
Phospho-antibodies or anti-KCC2 antibodies (07-432; Millipore) were then coupled with protein-G-Sepharose (4 Fast Flow; Sigma-Aldrich) at a ratio of […] of antibody per 100 μl of beads, for 2 h at 4° C. without agitation. 1.5 mg of clarified cell lysate was incubated with the antibody-coupled bead suspension, overnight at 4° C. under gentle agitation. The supernatant was collected after centrifugation and beads were washed twice with NaCl solution (0.25M NaCl in 1×PBS) and twice with PBS alone. Bound proteins were eluted with 2×LDS sample buffer (Invitrogen) containing 0.5% (v/v) 2-mercaptoethanol and denaturated at 75° C. for 20 min (IP with phospho-antibodies) or 37° C. for 1 h (IP with anti-KCC2 antibodies) before centrifugation (13,000×g at 4° C. for 15-20 min).
Samples were subjected to electrophoresis on polyacrylamide gradient gels (4-12% bis-tris gels) and transferred to nitrocellulose membranes. Membranes were rinsed with TBS-tween solution (TBST; Invitrogen) and blocked with 5% (w/v) skim milk. The membranes were then immunoblotted in 5% (w/v) skim milk in TBST with a primary antibody against KCC2 (rabbit, 07-432; Millipore; 1:1000), or phosphotyrosine (mouse, clone 4G10, Millipore, 1:1000), and a mouse primary antibody against neuron-specific beta-III tubulin overnight at 4° C. (clone 2G10; T8578; Sigma-Aldrich; 1:1000). […]

[1] = tested on: spontaneous interictal-like discharges (IIDs) in slices from mTLE patients; assay: Multielectrode array recording of postoperative hippocampal-subicular slices from mTLE patients; type: cell-based, human; details: 10 μM bumetanide, >10 min application
Procedure: as §1
Patients or their legal guardians gave informed consent to participate in the study. Patients ([…], 3 males, 4 female, age range: 16-54 years) diagnosed with mesial temporal lobe epilepsy with hippocampal sclerosis underwent multimodal preoperative neurological, neurophyschological and psychiatric evaluations as well as video-electroencephalographic recording, magnetic resonance imaging and fluorodeooxyglugose positron emission tomography. Cortectomies were performed at Sainte-Anne Hospital by neurosurgeons B. Devaux and B. Turak and at Pitié-Salpêtriére Hospital by neurosurgeons S. Clemenceau and B. Mathon. Cortical specimens collected in the operating room were immediately transported in ice-cold (0-4° C.), oxygenated solution (O2/CO2 95/5%), containing (in mM): N-methyl-d-glucamine 93, KCl 2.5, NaH2PO4 1.2, NaHCO3 30, HEPES 20, D-glucose 20, ascorbic acid 5, sodium pyruvate 3, MgSO4 10 and CaCl2 0.5 (300-310 mOsm, pH7.4) and transported within 15 minutes to the laboratory. Transverse hippocampal-subicular slices (400 m thick) were prepared in the same solution using a vibratome (HM650V, Microm). They were maintained for 20-30 minutes at 37° C. and then at room temperature in an interface chamber containing artificial cerebrospinal fluid (ACSF) composed of (in mM): D-glucose 10, KCl 3.5, NaHOC3 26, NaH2PO4 1.25, NaCl 126, CaCl2 1.6 and MgCl2 1.2 (290 mOsm), equilibrated with 5% CO2 in 95% 02.
Multielectrode array recordings were performed using a MEA2100 station (Multi Channel Systems) equipped with a 120-microelectrode array chamber (custom 12×10 layout, 30 μm TiN electrodes spaced 1 mm vertical and 1.5 mm horizontal). Slices were maintained in the recording chamber using a home-made platinum-nylon harp and superfused with pre-warmed (37° C.) oxygenated ACSF at a rate of 6 ml/min. Slices were imaged using a video-microscope table (MEA-VMT1, Multi Channel Systems) in order to register the location of electrodes with respect to the slice. Extracellular signals were acquired at a sampling rate of 10 kHz using Multi Channel Experimenter (Multi Channel Systems) and analyzed offline using homemade software (Matlab, The Mathworks).

NKCC1 = target: T1, NKCC1 (Homo sapiens, UniProt P55011); details: NEMO trial, neonatal seizures; cited from earlier work
T1 sequence (P55011 1-1212): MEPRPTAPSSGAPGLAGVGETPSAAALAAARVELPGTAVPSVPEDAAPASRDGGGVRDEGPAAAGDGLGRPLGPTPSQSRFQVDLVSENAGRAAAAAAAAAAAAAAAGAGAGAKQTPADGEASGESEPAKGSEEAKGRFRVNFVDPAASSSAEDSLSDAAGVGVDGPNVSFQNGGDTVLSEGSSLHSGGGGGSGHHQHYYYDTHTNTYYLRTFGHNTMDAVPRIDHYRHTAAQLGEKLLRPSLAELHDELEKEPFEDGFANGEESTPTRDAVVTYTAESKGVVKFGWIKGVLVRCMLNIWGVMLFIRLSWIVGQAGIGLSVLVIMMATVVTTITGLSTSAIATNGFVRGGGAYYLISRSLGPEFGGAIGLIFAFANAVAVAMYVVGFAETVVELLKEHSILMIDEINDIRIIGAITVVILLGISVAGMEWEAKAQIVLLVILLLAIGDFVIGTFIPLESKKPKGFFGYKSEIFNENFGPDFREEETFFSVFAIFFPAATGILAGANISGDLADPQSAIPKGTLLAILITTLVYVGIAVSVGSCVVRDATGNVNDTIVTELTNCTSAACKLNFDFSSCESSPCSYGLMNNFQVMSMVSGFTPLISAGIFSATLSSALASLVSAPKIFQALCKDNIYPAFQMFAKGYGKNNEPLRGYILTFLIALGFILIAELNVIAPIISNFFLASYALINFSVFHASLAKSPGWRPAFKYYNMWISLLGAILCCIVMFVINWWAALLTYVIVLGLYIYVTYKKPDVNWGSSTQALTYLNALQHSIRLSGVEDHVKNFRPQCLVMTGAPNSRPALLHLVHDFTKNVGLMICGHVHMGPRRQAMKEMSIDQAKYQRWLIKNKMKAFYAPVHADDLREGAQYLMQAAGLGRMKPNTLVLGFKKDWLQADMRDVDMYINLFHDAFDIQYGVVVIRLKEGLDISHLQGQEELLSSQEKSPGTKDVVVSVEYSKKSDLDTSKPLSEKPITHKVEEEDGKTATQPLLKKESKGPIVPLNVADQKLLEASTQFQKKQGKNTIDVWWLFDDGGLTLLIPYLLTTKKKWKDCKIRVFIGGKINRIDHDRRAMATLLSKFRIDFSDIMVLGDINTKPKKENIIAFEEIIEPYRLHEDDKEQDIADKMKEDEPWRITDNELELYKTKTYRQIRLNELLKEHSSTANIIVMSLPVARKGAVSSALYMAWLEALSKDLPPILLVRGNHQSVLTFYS

Q: For CC(C)(C)NC(=O)c1cncn1C1CCN(c2ccc(-c3nnc(C(F)(F)F)o3)cn2)CC1 [WNK463], which “change of SPAK phosphorylation (S327)” value (SPAK) is on record?
A: The value was −84.10±4.57%.

Q: What about the “change of OSR1 phosphorylation (S325)” value (OSR1) of the same compound?
A: The value was −81.00±5.56%.

Q: What about the “change of total KCC2 expression” value (KCC2; 10 μM WNK463, 2 h, slices, vs DMSO) of the same compound?
A: The value was −7.64±13.00%.

Q: And the “change of KCC2 phosphorylation at S940” value (KCC2; 10 μM WNK463, 2 h, vs DMSO)?
A: The value was −14.40±4.67%.

Q: And the “change of KCC2 phosphorylation at T906” value (KCC2; 10 μM WNK463, 2 h, vs DMSO)?
A: The value was −13.70±12.5%.

Q: What about the “change of KCC2 phosphorylation at T1007” value (KCC2; 10 μM WNK463, 2 h, vs DMSO) of the same compound?
A: Its value is −78.702±3.27%.

Q: Which results are given for CCCCNc1cc(C(=O)O)cc(S(N)(=O)=O)c1Oc1ccccc1 [bumetanide]?
A: slices in which the amplitude of IIDs was reduced or IIDs abolished [1]: 3 of 4; hearing loss in surviving patients (NKCC1): 3/11

Q: With [Na+].[Na+].[Na+].[O]=[V]([O-])([O-])[O-] [sodium orthovanadate] as the compound, how does the “change of tyrosine phosphorylation of KCC2” value (KCC2; sodium orthovanadate 200 μM in H2O (FIG. 4 legend), 2 h) read?
A: The value was “+89.10±45.40%”.
